One compound from patent publication US8256433B2 (priority 1999, dated 2012) can be followed below.

The conditions of this data set: pH 3.

In the case of `CN1CCCC1c1cccnc1.O=C(O)C(O)C(O)C(=O)O` (stereo not shown) [Nicotine Bitartrate, nicotine bitartrate], the “loss of nicotine into the polymeric dosage form materials, comparison of salts” value was “better”.
